From US11999758B2, “Inhibitors of the YAP/TAZ-TEAD interaction and their use in the treatment of cancer” (INVENTIVA, priority 2018, dated 2024) come the findings set out here.

The assay deals with T1, YAP-TEAD interaction (Homo sapiens, UniProt P28347).
T1 construct: expressed in transfected cells; host or cells: HEK293 GripTite 293 MSR (Invitrogen R795-07)
Kind of assay: Cell-based TEAD-GAL4 transactivation assay (luciferase reporter). Particulars: HEK293 cells transfected with TEAD1-Gal4, YAP mutant (S127A, S397A) and luciferase reporter, compounds 0.1 μM to 30 μM; for Emax: HEK293, 24 h, read-out: TEAD-GAL4 Transactivation activity Max Act; for IC50 / TEAD-GAL4 Transactivation activity Max Act: 24 h. The protocol: To identify inhibitors of YAP-TEAD interaction, a transient transactivation assay was carried out on HEK293 cell line (HEK293 GripTite™ 293 MSR (Invitrogen R795-07)) using plasmids containing the full length TEAD1 sequences, the full length YAP mutant (S127A, S397A) and a luciferase gene reporter. All expression constructs were performed into a pSG5 backbone plasmid in which the SV40 promoter was replaced by the CMV promoter. The TEAD1 construct was prepared by cloning the full-length human TEAD1 cDNA in fusion with the Gal4 DNA Binding Domain (AA 1-148) into pSG5_CMV to create the TEAD1 (FL)_hum_pSG5Gal4_CMV. The full-length YAP mutant (S127A, S397A) was also cloned into pSG5_CMV to create the YAP (FL)_hum_pSG5_mutS127A_S397A_CMV. The reporter plasmid GAL4(5×RE)_TK(−105/+56)_pGL3-Basic contains 5 copies of the GAL4 responsive element (5′-TCGGAGGACAGTACTCC-3′) upstream of the thymidine kinase (TK) promoter (−105/+56) inserted in a pGL3-Basic vector. To evaluate the selectivity of our compounds in blocking the YAP-TEAD interaction, a counter-screening protein-protein interaction transactivation assay was also established. Briefly, two other expression plasmids, the pBD-P53 which expresses the P53 (AA 72-390) in fusion with Gal4 and the pAD-SV40T which expresses the SV40 large T antigen (AA 84-708,AgT), were created. HEK293 cells were seeded at 5×10^4 cells/well in 96 well plates (assay plates) in DMEM medium containing 4.5 g/L D-glucose, 10% high inactivated (HI) fetal bovine serum 1% Glutamax, 1% non-essential amino acid and 1% sodium pyruvate and 0.5% penicillin/streptomycin at 37° C. in a humidified atmosphere of 8% CO2. After 24 h, transfections were performed using Jet-PEI as transfectant (101B-010 Polyplus Transfection), according to the instructions of the manufacturer (N/P=10) and a ratio YAP/TEAD=10 (per well: 50 ng of YAP(FL), 5 ng of TEAD(FL) and 50 ng of reporter plasmid). Six hours after cell transfection, the plates (‘assay plate’) were washed with 100 μl PBS per well and cells were treated with compounds in semi-log from 0.1 μM to 30 μM or DMSO 0.5% as control in DMEM, 4.5 g/L D-Glucose without phenol red, 0.3% BSA, 1% glutamax, 1% NEAA, 1% sodium pyruvate. 24 h later, the luciferase activity was determined after addition of 100 μl of Steady Glo™ luciferase assay system (Promega E2550) according to the manufacturer's directions. Luciferase activity in cell extracts was measured by reading luminescence using the Envision device.
The cellular response was determined by fitting the concentration response curves using a 3-parameter curve fit equation and determining the concentration that inhibited the luciferase activity by 50%.

T1 sequence (P28347 whole entry): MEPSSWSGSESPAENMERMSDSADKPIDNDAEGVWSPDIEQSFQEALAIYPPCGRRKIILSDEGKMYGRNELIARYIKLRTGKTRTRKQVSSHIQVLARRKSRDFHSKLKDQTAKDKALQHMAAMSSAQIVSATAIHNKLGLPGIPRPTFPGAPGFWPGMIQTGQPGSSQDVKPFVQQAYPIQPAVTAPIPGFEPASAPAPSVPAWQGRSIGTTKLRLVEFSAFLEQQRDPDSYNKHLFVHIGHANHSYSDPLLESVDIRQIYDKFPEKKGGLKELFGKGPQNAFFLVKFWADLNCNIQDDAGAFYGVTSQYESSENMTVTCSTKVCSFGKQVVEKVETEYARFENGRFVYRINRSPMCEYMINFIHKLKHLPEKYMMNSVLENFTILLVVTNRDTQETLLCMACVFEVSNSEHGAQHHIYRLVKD

With `Cc1csc2c(N3N=C(c4ccc5c(c4)COB5O)CCC3C)ncnc12` (single isomer, unassigned; (+)) [Ex119, (+) 4-[6-(1-hydroxy-3H-2,1-benzoxaborol-5-yl)-3-methyl-4,5-dihydro-3H-pyridazin-2-yl]-7-methyl-thieno[3,2-d]pyrimidine], the Emax is 77% and the IC50 was determined as 430 nM.

Regarding `Cc1csc2c(N3N=C(c4ccc5c(c4)COB5O)CCC3C)ncnc12` (single isomer, unassigned; (-)) [Ex120, (−) 4-[6-(1-hydroxy-3H-2,1-benzoxaborol-5-yl)-3-methyl-4,5-dihydro-3H-pyridazin-2-yl]-7-methyl-thieno[3,2-d]pyrimidine], the IC50 stood at 500 nM and the “TEAD-GAL4 Transactivation activity Max Act” value came to 84%.

In the case of `COc1cc(C2=NN(c3ncnc4c(OC)cccc34)C(C)CC2)ccc1B(O)O` (single isomer, unassigned; isomer 1) [Ex124, [2-methoxy-4-[2-(8-methoxyquinazolin-4-yl)-3-methyl-4,5-dihydro-3H-pyridazin-6-yl]phenyl]boronic acid (isomer 1)], the Emax was found to be 93% and 7270 nM corresponded to half-maximal inhibition (IC50).

As to `COc1cc(C2=NN(c3ncnc4c(OC)cccc34)C(C)CC2)ccc1B(O)O` (single isomer, unassigned; isomer 2) [Ex125, [2-methoxy-4-[2-(8-methoxyquinazolin-4-yl)-3-methyl-4,5-dihydro-3H-pyridazin-6-yl]phenyl]boronic acid (isomer 2)], half-maximal inhibition (IC50) was put at 3520 nM and the “TEAD-GAL4 Transactivation activity Max Act” value came to 86%.

Regarding `CCN(/N=C/c1ccc(B(O)O)c(OC)c1)c1ncnc2c(C)csc12` [Ex62, [4-[(E)-[ethyl-(7-methylthieno[3,2-d]pyrimidin-4-yl)hydrazono]methyl]-2-methoxy-phenyl]boronic acid], the Emax was found to be 58% and the midpoint of inhibition, the IC50, lay at 990 nM.

For `CCN(/N=C/c1ccc(B(O)O)c(OC)c1)c1ncnc2ccsc12` [Ex63, [4-[(E)-[ethyl(thieno[3,2-d]pyrimidin-4-yl)hydrazono]methyl]-2-methoxy-phenyl]boronic acid], the Emax amounted to 63% and the IC50 stood at 690 nM.

On to `CCN(/N=C/c1ccc(B(O)O)c(OC)c1)c1ncnc2ncsc12` [Ex64, [4-[(E)-[ethyl(thiazolo[4,5-d]pyrimidin-7-yl)hydrazono]methyl]-2-methoxy-phenyl]boronic acid], for which the Emax amounted to 96% and the midpoint of inhibition, the IC50, lay at 2760 nM.

In the case of `CCN(/N=C/c1ccc(B(O)O)c(OC)c1)c1ncnc2occc12` [Ex65, [4-[(E)-[ethyl(furo[2,3-d]pyrimidin-4-yl)hydrazono]methyl]-2-methoxy-phenyl]boronic acid], the Emax worked out at 92% and the half-inhibitory concentration (IC50) turned out to be 1980 nM.

On to `CCN(/N=C/c1ccc(B(O)O)c(OC)c1)c1ncnc2c1ccn2C` [Ex66, [4-[(E)-[ethyl-(7-methylpyrrolo[2,3-d]pyrimidin-4-yl)hydrazono]methyl]-2-methoxy-phenyl]boronic acid], for which the Emax is 87% and half-maximal inhibition (IC50) required 2150 nM.

Regarding `COc1cc(/C=N/N(CC(C)C)c2ncnc3c(C)csc23)ccc1B(O)O` [Ex67, [4-[(E)-[isobutyl-(7-methylthieno[3,2-d]pyrimidin-4-yl)hydrazono]methyl]-2-methoxy-phenyl]boronic acid], the Emax was found to be 89% and the midpoint of inhibition, the IC50, lay at 3820 nM.

Consider `COc1cc(/C=N/N(CC(C)C)c2nc(C)nc3ccsc23)ccc1B(O)O` [Ex68, [4-[(E)-[isobutyl-(2-methylthieno[3,2-d]pyrimidin-4-yl)hydrazono]methyl]-2-methoxy-phenyl]boronic acid], for which the Emax worked out at 84% and the IC50 turned out to be 2630 nM.

Regarding `COc1cc(/C=N/N(CC(C)C)c2ncnc3cc(C)sc23)ccc1B(O)O` [Ex69, [4-[(E)-[isobutyl-(6-methylthieno[3,2-d]pyrimidin-4-yl)hydrazono]methyl]-2-methoxy-phenyl]boronic acid], the Emax was 92% and the IC50 came to 2340 nM.

As for `COCCN(/N=C/c1ccc(B(O)O)c(OC)c1)c1ncnc2ccsc12` [Ex70, [2-methoxy-4-[(E)-[2-methoxyethyl(thieno[3,2-d]pyrimidin-4-yl) hydrazono]methyl]phenyl]boronic acid], the Emax is 87% and the IC50 was 1880 nM.

As to `COc1cc(C2=NN(c3ncnc4ccsc34)C(C)CC2)ccc1B(O)O` (stereo not drawn) [Ex72, [2-methoxy-4-(3-methyl-2-thieno[3,2-d]pyrimidin-4-yl-4,5-dihydro-3H-pyridazin-6-yl)phenyl]boronic acid], the Emax was 85% and the IC50 was 1860 nM.

For `COc1cc(C2=NN(c3ncnc4c3ccn4C)C(C)CC2)ccc1B(O)O` (stereo not drawn) [Ex73, [2-methoxy-4-[3-methyl-2-(7-methylpyrrolo[2,3-d]pyrimidin-4-yl)-4,5-dihydro-3H-pyridazin-6-yl]phenyl]boronic acid], the Emax came out at 88% and it took 2240 nM to reach half-maximal inhibition (IC50).

In the case of `COc1cc(C2=NN(c3ncnc4cc(F)ccc34)CC(C)O2)ccc1B(O)O` (stereo not drawn) [Ex74, [4-[4-(7-fluoroquinazolin-4-yl)-6-methyl-5,6-dihydro-1,3,4-oxadiazin-2-yl]-2-methoxy-phenyl]boronic acid], the Emax was 83% and the IC50 came out at 2360 nM.

For `CCN(/N=C/c1ccc2c(c1)COB2O)c1ncnc2cn[nH]c12` [Ex78, N-ethyl-N-[(E)-(1-hydroxy-3H-2,1-benzoxaborol-5-yl)methyleneamino]-1H-pyrazolo[4,3-d]pyrimidin-7-amine], the Emax came out at 75% and the midpoint of inhibition, the IC50, lay at 2220 nM.

`CCN(/N=C/c1ccc2c(c1)COB2O)c1ncnc2cc[nH]c12` [Ex81, N-ethyl-N-[(E)-(1-hydroxy-3H-2,1-benzoxaborol-5-yl)methyleneamino]-5H-pyrrolo[3,2-d]pyrimidin-4-amine]: the Emax stood at 79% and the IC50 came out at 1750 nM.

For `CCCn1ccc2c(N(CC)/N=C/c3ccc4c(c3)COB4O)ncnc21` [Ex84, N-ethyl-N-[(E)-(1-hydroxy-3H-2,1-benzoxaborol-5-yl)methyleneamino]-7-propyl-pyrrolo[2,3-d]pyrimidin-4-amine], the Emax came to 85% and the IC50 was 1030 nM.

In the case of `CCN(/N=C/c1ccc2c(c1)COB2O)c1ncnc2c1ccn2CC` [Ex85, N,7-diethyl-N-[(E)-(1-hydroxy-3H-2,1-benzoxaborol-5-yl)methyleneamino]pyrrolo [2,3-d]pyrimidin-4-amine], the Emax turned out to be 81% and the IC50 amounted to 610 nM.

On to `CCN(/N=C/c1ccc2c(c1)COB2O)c1ncnc2[nH]ncc12` [Ex86, N-ethyl-N-[(E)-(1-hydroxy-3H-2,1-benzoxaborol-5-yl)methyleneamino]-1H-pyrazolo[3,4-d]pyrimidin-4-amine], for which the Emax turned out to be 81% and the IC50 came to 650 nM.

Consider `CCN(/N=C/c1ccc2c(c1)COB2O)c1ncnc2ncsc12` [Ex87, N-ethyl-N-[(E)-(1-hydroxy-3H-2,1-benzoxaborol-5-yl)methyleneamino]-thiazolo[4,5-d]pyrimidin-7-amine], for which the Emax worked out at 82% and 590 nM corresponded to half-maximal inhibition (IC50).

In the case of `CCN(/N=C/c1ccc2c(c1)COB2O)c1nc(C)nc2c(C)csc12` [Ex88, N-ethyl-N-[(E)-(1-hydroxy-3H-2,1-benzoxaborol-5-yl)methyleneamino]-2,7-dimethyl-thieno[3,2-d]pyrimidin-4-amine], the Emax came to 80% and it took 630 nM to reach half-maximal inhibition (IC50).

For the compound `CCN(/N=C/c1ccc2c(c1)COB2O)c1ncnc2cc(F)ccc12` [Ex89, N-ethyl-7-fluoro-N-[(E)-(1-hydroxy-3H-2,1-benzoxaborol-5-yl)-methyleneamino]quinazolin-4-amine], the Emax is 85% and the IC50 was 820 nM.
